ChEMBL document CHEMBL1201862, “PubChem BioAssay data set” (2004)
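These data come from cells grown in 96-well plates and exposed to compound for 48 hours at five concentrations. GI50 is the concentration that inhibits growth by half.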 Active and inactive are the calls of the source. Cut-off read from the data, not from the text of the source: active = GI50 up to about 1.1 µM and inactive = higher.

Tests used:
Assay in all cases: growth of human tumour cells (NCI), 48 h
[1] = test system: ACHN
[2] = test system: RXF 393
[3] = test system: SF-268
[4] = test system: 786-0
[5] = test system: HOP-92
[6] = test system: SW-620
[7] = test system: SK-OV-3
[8] = test system: TK-10
[9] = test system: HCC 2998
[10] = test system: HOP-62
[11] = test system: M19-MEL
[12] = test system: EKVX
[13] = test system: NCI-H460
[14] = test system: HCT-15
[15] = test system: SR
[16] = test system: T47D
[17] = test system: K562
[18] = test system: PC-3
[19] = test system: BT-549
[20] = test system: Hs-578T

Compound	GI50 [1]	GI50 [2]	GI50 [3]	GI50 [4]	GI50 [5]	GI50 [6]	GI50 [7]	GI50 [8]	GI50 [9]	GI50 [10]	GI50 [11]	GI50 [12]	GI50 [13]	GI50 [14] [µM]	GI50 [15]	GI50 [16]	GI50 [17]	GI50 [18]	GI50 [19]	GI50 [20]
CCCCCCCCCCCCCP(=O)(O)O	> 100 µM (inactive)	35.5 µM (inactive)	> 100 µM (inactive)	> 100 µM (inactive)	> 100 µM (inactive)	> 100 µM (inactive)	> 100 µM (inactive)	> 100 µM (inactive)	> 100 µM (inactive)	> 100 µM (inactive)	> 100 µM (inactive)	> 100 µM (inactive)	> 100 µM (inactive)	> 100	–	–	–	–	–	–
CCCCCCCCCCCCN(CC(O)C(O)C(OC1OC(CO)C(O)C(O)C1O)C(O)CO)C(=O)CCCCCCCCCCC (stereo unspecified)	16.9 µM (inactive)	26.9 µM (inactive)	20.1 µM (inactive)	19 µM (inactive)	21.9 µM (inactive)	19 µM (inactive)	22.3 µM (inactive)	16.3 µM (inactive)	18.4 µM (inactive)	25.8 µM (inactive)	–	18.8 µM (inactive)	20.5 µM (inactive)	18.6	33.1 µM (inactive)	28.1 µM (inactive)	19 µM (inactive)	25.2 µM (inactive)	20.4 µM (inactive)	26.3 µM (inactive)
CC(C)NC(=O)OCc1c(COC(=O)NC(C)C)c(-c2ccc[n+](COC(=O)CC(C)(C)C)c2)n2c1CCC2	35.6 µM (inactive)	38.7 µM (inactive)	54 µM (inactive)	38.4 µM (inactive)	> 100 µM (inactive)	> 100 µM (inactive)	> 100 µM (inactive)	> 100 µM (inactive)	> 100 µM (inactive)	56.6 µM (inactive)	–	> 100 µM (inactive)	51.5 µM (inactive)	> 100	71.1 µM (inactive)	> 100 µM (inactive)	> 100 µM (inactive)	58.5 µM (inactive)	> 100 µM (inactive)	87.7 µM (inactive)
O=C1OC(OC/C(Br)=C(\Br)COC2OC(=O)C(Cl)=C2Cl)C(Cl)=C1Cl (stereo unspecified)	5.97 µM (inactive)	2.39 µM (inactive)	8.43 µM (inactive)	2.51 µM (inactive)	1.05 µM (active)	2.39 µM (inactive)	22.2 µM (inactive)	4.67 µM (inactive)	17.9 µM (inactive)	14.5 µM (inactive)	–	9.57 µM (inactive)	13.2 µM (inactive)	2.8	0.9 µM (active)	12.6 µM (inactive)	1.14 µM (inactive)	14.1 µM (inactive)	2.67 µM (inactive)	5.57 µM (inactive)
N#CC(C(=N/NC(N)=S)/C(=N/NC(N)=S)C(C#N)c1ccc(Cl)cc1)c1ccc(Cl)cc1 (stereo unspecified)	> 100 µM (inactive)	47.3 µM (inactive)	> 100 µM (inactive)	> 100 µM (inactive)	> 100 µM (inactive)	41.7 µM (inactive)	> 100 µM (inactive)	> 100 µM (inactive)	> 100 µM (inactive)	> 100 µM (inactive)	> 100 µM (inactive)	> 100 µM (inactive)	> 100 µM (inactive)	83.8	–	–	34.9 µM (inactive)	–	–	–
CC1=CC23C(COC(=O)C24CO4)C(C(=O)O)=CC3C1C (stereo unspecified)	27.4 µM (inactive)	3.55 µM (inactive)	4.93 µM (inactive)	5.09 µM (inactive)	8.24 µM (inactive)	18.2 µM (inactive)	4.65 µM (inactive)	21.2 µM (inactive)	15.4 µM (inactive)	14.1 µM (inactive)	–	40.4 µM (inactive)	18.2 µM (inactive)	24.5	17.1 µM (inactive)	6.21 µM (inactive)	4.85 µM (inactive)	11.9 µM (inactive)	4.9 µM (inactive)	2.78 µM (inactive)
Nc1nc(N)c2cc(-c3ccccc3)cnc2n1	12.9 µM (inactive)	8.65 µM (inactive)	2.75 µM (inactive)	9.89 µM (inactive)	12.2 µM (inactive)	9.84 µM (inactive)	81.1 µM (inactive)	16.3 µM (inactive)	33 µM (inactive)	17 µM (inactive)	–	16.9 µM (inactive)	10.8 µM (inactive)	27.4	6.18 µM (inactive)	36.8 µM (inactive)	3.36 µM (inactive)	8 µM (inactive)	16.6 µM (inactive)	20.2 µM (inactive)
CC1=N/C(=C\c2ccc(/C=C3/N=C(C)OC3=O)cc2)C(=O)O1	> 100 µM (inactive)	> 100 µM (inactive)	> 100 µM (inactive)	> 100 µM (inactive)	> 100 µM (inactive)	> 100 µM (inactive)	> 100 µM (inactive)	> 100 µM (inactive)	> 100 µM (inactive)	> 100 µM (inactive)	> 100 µM (inactive)	–	–	> 100	–	–	> 100 µM (inactive)	–	–	–
N#C[C@](CO)(NC(=O)OCc1ccccc1)C(F)F	> 100 µM (inactive)	> 100 µM (inactive)	> 100 µM (inactive)	> 100 µM (inactive)	> 100 µM (inactive)	> 100 µM (inactive)	> 100 µM (inactive)	> 100 µM (inactive)	> 100 µM (inactive)	> 100 µM (inactive)	–	> 100 µM (inactive)	> 100 µM (inactive)	> 100	> 100 µM (inactive)	> 100 µM (inactive)	> 100 µM (inactive)	> 100 µM (inactive)	> 100 µM (inactive)	> 100 µM (inactive)
CCC(/C(=N\Nc1c(Cl)cc(Cl)cc1Cl)c1ccccc1)n1ccnc1C (stereo unspecified)	5.52 µM (inactive)	> 10 µM (inactive)	17.2 µM (inactive)	11.7 µM (inactive)	4.06 µM (inactive)	15.2 µM (inactive)	18.4 µM (inactive)	14.3 µM (inactive)	3.66 µM (inactive)	–	14.8 µM (inactive)	17.3 µM (inactive)	11 µM (inactive)	10.5	–	–	5.07 µM (inactive)	–	–	–
COC(=O)[C@]1(C)CCC[C@]2(C)C3CC4OOC3(C=C4C(C)(C)O)CCC21 (stereo partly specified)	47.8 µM (inactive)	–	60.1 µM (inactive)	30.1 µM (inactive)	–	36.1 µM (inactive)	76.7 µM (inactive)	> 100 µM (inactive)	–	> 100 µM (inactive)	43 µM (inactive)	75.2 µM (inactive)	33.5 µM (inactive)	37.8	–	–	21.9 µM (inactive)	–	–	–
Cc1cc(C)c2c(O)cc(-c3cccc(F)c3)nc2n1	0.0953 µM (active)	0.163 µM (active)	1.44 µM (inactive)	0.177 µM (active)	< 0.01 µM (active)	< 0.0194 µM (active)	0.158 µM (active)	23.7 µM (inactive)	0.301 µM (active)	0.158 µM (active)	–	0.45 µM (active)	0.0738 µM (active)	0.0495	0.0169 µM (active)	0.232 µM (active)	< 0.0175 µM (active)	0.0718 µM (active)	0.175 µM (active)	0.0614 µM (active)
